According to paper PMC7782983, “Anion inhibition studies of the Zn(II)-bound ι-carbonic anhydrase from the Gram-negative bacterium Burkholderia territorii” (Journal of Enzyme Inhibition and Medicinal Chemistry, 2021):

Target: BteCAι
Assay: stopped-flow CO2 hydrase assay
Assay type: biochemical, Burkholderia territorii
Conditions: CO2 hydration, HEPES pH 7.5, 20 mM NaClO4, 15 min preincubation, room temperature; Zn(II) enzyme; read-out: KI (mM)^a / BteCAι^d

Compound | Ki [mM]
O=C(O)O [HCO3^−] | 0.94
Cl [Cl^−] | 3.1
N#CS [SCN^−] | 6.1
NS(=O)(=O)O [NH2SO3H] | 0.0062
O=S(=O)(O)OOS(=O)(=O)O [S2O8^2−] | 7.4
N#CO [CNO^−] | 0.79
N#C[SeH] [SeCN^−] | 6.6
NS(N)(=O)=O [NH2SO2NH2] | 0.086
[O]=[Sn]([OH])[OH] [SnO3^2−] | 0.094
OB(O)c1ccccc1 [PhB(OH)2] | 0.009
CCN(CC)C(=S)S [EtNCS2^−] | 0.81
O=S(=O)(O)O [SO4^2−] | 5.8
O=C(O)O [CO3^2−] | 4.4

Same assay, conditions: read-out: KI (mM)^a / BteCAι^d

Compound | Ki [mM]
O=[As](O)(O)c1ccccc1 [PhAsO3H2] | 0.008
